Experimental data published in EP2518159A1, “Method for determining the neurodevelopmental toxicity of a compound in vitro” (priority 2011, dated 2012).

Columns and labels:
Settings in all cases: ES-D3 neural differentiation culture, exposed from day 3, harvested on day 4 (24h exposure); relative to DMSO control (1 = unchanged); 25 nM MeHg, 100 µM cyproconazole, 1000 µM valproic acid, 25 µM hexaconazole
[1] = system: Emilin2; assay: Gene expression change of Emilin2 in neural differentiation culture of embryonic stem cells (Affymetrix microarray)
Description: (§1) Murine embryonic stem cells (ESC) (ES-D3, ATCC, Rockville, MD, USA) were routinely subcultured every 2-3 days and grown as a monolayer in CM supplemented with leukemia inhibiting factor (LIF) (Chemicon, Temecula, CA, USA) at a final concentration of 1000 units/ml. The cells were maintained in a humidified atmosphere at 37°C and 5% CO2.
(§2) Differentiation of ESC into the neural lineage was carried out as described earlier (Theunissen et al., 2010). In brief, stem cell suspensions (3.75×10^4 cells/ml) were placed on ice before the initiation of the culture. Drops (20µl) containing 750 cells in CM were placed onto the inner side of the lid of a 90 cm Petri dish filled with phosphate-buffered saline (PBS) (Gibco BRL, Gaithersburg, MD) and incubated at 37 °C, 90% relative humidity and 5% CO2. After 3 days of hanging drop culture embryoid bodies (EB) had formed and were subsequently transferred to 60mm bacterial Petri dishes (Greiner Bio-one, Frickenhausen, Germany) containing CM supplemented with 0.5 µM retinoic acid (RA). On day 5, EB were plated on laminin (Roche, Basel, Switzerland) coated dishes (Corning Incorporated, Corning, NY, USA) in LS medium supplemented with 2.5 ug/ml fibronectin (Invitrogen, Carlsbad, CA, USA). One day later, on day 6, the LS medium was replaced by ITS medium. On day 7, EB were washed with phosphate buffered saline (PBS) (Gibco BRL, Gaithersburg, MD, USA) and incubated in cell dissociation buffer (Gibco BRL, Gaithersburg, MD, USA) for 3 minutes. Then EB were carefully detached from each Petri dish without dissociating the EBs and the entire content was replated on poly-L-ornithine (Sigma-Aldrich, Zwijndrecht, The Netherlands) and laminin coated dish in N2 medium supplemented with 10 ng/ml basic fibroblast growth factor (bFGF) (Srtathmann-Biotec AG, Englewood, CO, USA). The N2 medium supplemented with bFGF was replaced every other day for 7 days.
(§3) Control differentiation cultures were harvested on culture days 3, 4 and 5 (8 replicates per group). Differentiation cultures were exposed to the 3 neurodevelopmental toxicants and controls from day 3 onwards and harvested on day 4 (24h exposure) (8 replicates per group). Cells (-40-50 EB/sample) were directly collected in RNA Protect (Qiagen Benelux, Venlo, The Netherlands) to stabilize RNA, and total RNA was purified using the Qiagen RNEasy Plus Mini Kit (Qiagen Benelux, Venlo, The Netherlands) following the manufacturer's instructions. RNA quantity was determined using the NanoDrop Spectophotometer (Isogen Lifescience, de Meern, The Netherlands). RNA integrity was assessed on the 2100 Bioanalyzer (Agilent, Santa Clara, CA, USA) using the RNA 6000 Nano Chip Kit (Agilent, Santa Clara, CA, USA), and good quality RNA was used for gene expression analysis (RNA integrity number (RIN) > 8.0).

[2] = system: Car4; assay: Gene expression change of Car4 in neural differentiation culture of embryonic stem cells (Affymetrix microarray)
Description: as §1, §2, §3

[3] = system: Shisa6; assay: Gene expression change of Shisa6 in neural differentiation culture of embryonic stem cells (Affymetrix microarray)
Description: as §1, §2, §3

What does the source list for `[CH3][Hg][Cl]` [MeHg, Methylmercury chloride]?
Ratio, gene expression change Emilin2 [1]: 1.351; Ratio, gene expression change Car4 [2]: 0.686; Ratio, gene expression change Shisa6 [3]: 1.380

Which “Ratio, gene expression change Emilin2” value [1] does the source give for `CC(C1CC1)C(O)(Cn1cncn1)c1ccc(Cl)cc1` (stereo not drawn) [Cyp, Cyproconazole] here?
Its value is 1.270.

What about the “Ratio, gene expression change Car4” value [2] of the same compound?
Its value is 0.777.

What about the “Ratio, gene expression change Shisa6” value [3] of the same compound?
The value was 1.228.

How did the “Ratio, gene expression change Emilin2” value [1] turn out when `CCCCC(O)(Cn1cncn1)c1ccc(Cl)cc1Cl` (stereo not drawn) [Hex, Hexaconazole] was run?
The value was 1.185.

What about the “Ratio, gene expression change Car4” value [2] of the same compound?
Its value is 0.936.

And the “Ratio, gene expression change Shisa6” value [3]?
Its value is 1.096.

How did the “Ratio, gene expression change Emilin2” value [1] turn out when `CCCC(CCC)C(=O)[O-].[Na+]` [VPA, Valproic acid sodium salt] was run?
The value was 2.063.

What about the “Ratio, gene expression change Car4” value [2] of the same compound?
The value was 1.373.

And the “Ratio, gene expression change Shisa6” value [3]?
The value was 0.752.
